Assay results published in US10292973B2, “Covalent irreversible inhibitors of USP7 as anti-cancer agents” (PROGENRA, INC., priority 2015, dated 2019).
“Also recorded” adds a separate entry of the source.

Experiments:
USP7core C223A = USP7core C223A (Homo sapiens, UniProt Q93009, C223A); assay: Covalent adduct formation with active site cysteine mutant USP7core C223A by LC-MS; assay type: binding; settings: 5 μM USP7core C223A, 100 μM compound, room temperature, 4 h
Experimental: (§1) FIG. 4 provides data showing an example of the covalent irreversible nature of disclosed USP7 inhibitors. 5 μM purified USP7core WT or active site cysteine mutant C223A were incubated with 100 μM Compound 5 or DMSO at room temperature for 4 hrs, and then the protein/compound reaction products were mixed with equal volume of 0.1% Trifluoroacetic acid (TFA) before LC-MS injection. The samples were analyzed by reverse-phase liquid chromatography coupled to UV and MS detection (Agilent, 6220 Accurate-Mass Time-of-Flight (TOF) LC/MS). […] 5μM purified USP7core WT or C223A were incubated with 100 μM of an exemplary compound of the present invention (for example, Compound 5) or DMSO at room temperature for 4 h, and then the protein/compound reaction products were mixed with equal volume of 0.1% Trifluoroacetic acid (TFA). The samples were analyzed by reverse-phase liquid chromatography coupled to UV and MS detection (Agilent, 6220 Accurate-Mass Time-of-Flight (TOF) LC/MS).

USP7 = molecular target: T1, USP7 (Homo sapiens, UniProt Q93009); assay: DUB activity of USP7 immunoprecipitated from treated Jurkat cells (Ub-EKL assay), pulse treatment and washout; assay type: cell-based; settings: washed; for USP7 catalytic activity returned: Jurkat cells exposed 2 hours, immunoprecipitated USP7
T1 construct: USP7 was immuno-precipitated from lysates and USP7 activity measured; endogenous in cells; host or cells: Jurkat cells
T1 sequence (Q93009 whole entry): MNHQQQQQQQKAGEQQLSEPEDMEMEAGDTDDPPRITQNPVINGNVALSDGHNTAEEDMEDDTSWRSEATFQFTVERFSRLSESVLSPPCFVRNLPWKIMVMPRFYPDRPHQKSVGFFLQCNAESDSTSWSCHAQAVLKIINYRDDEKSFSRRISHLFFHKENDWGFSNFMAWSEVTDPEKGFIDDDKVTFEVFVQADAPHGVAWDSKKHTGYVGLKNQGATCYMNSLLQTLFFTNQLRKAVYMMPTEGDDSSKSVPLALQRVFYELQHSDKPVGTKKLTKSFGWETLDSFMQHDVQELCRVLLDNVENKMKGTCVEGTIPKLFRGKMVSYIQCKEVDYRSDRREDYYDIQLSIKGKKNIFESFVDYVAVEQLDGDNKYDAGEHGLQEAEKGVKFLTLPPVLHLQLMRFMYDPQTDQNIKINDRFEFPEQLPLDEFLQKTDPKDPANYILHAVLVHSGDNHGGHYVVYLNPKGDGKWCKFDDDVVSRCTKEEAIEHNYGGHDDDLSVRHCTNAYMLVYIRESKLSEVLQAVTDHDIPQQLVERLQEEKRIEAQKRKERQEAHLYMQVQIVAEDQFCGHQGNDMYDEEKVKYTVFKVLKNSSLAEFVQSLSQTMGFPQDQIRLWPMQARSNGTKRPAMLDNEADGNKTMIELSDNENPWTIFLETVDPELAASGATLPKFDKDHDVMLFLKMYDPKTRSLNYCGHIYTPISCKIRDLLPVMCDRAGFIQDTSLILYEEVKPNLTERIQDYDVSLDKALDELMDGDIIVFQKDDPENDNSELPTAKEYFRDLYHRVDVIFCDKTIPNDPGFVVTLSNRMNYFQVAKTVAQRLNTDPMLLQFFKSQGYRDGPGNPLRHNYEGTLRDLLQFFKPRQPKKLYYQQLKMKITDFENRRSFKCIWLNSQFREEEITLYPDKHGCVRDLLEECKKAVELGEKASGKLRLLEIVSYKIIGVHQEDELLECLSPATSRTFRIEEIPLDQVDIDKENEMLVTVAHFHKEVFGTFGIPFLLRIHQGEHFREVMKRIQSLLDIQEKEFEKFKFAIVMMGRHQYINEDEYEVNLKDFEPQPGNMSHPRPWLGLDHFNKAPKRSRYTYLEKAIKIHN
Experimental: FIG. 5A-FIG. 5C graphically illustrate examples of the disclosed USP7 inhibitors of the invention that are irreversible inhibitors. Jurkat cells were treated with 10 μM USP7i for indicated time period (FIG. 5A) or pulse treated for 2 h with 10 μM compound 5 (FIG. 5B), washed and incubated for the indicated time period followed by DUB activity measurement of immunoprecipitated USP7 as well as total cell lysate (FIG. 5C) using Ub-EKL assay as described previously (U.S. Pat. No. 8,680,139). A portion of the immunoprecipitated USP7 is separated on 10% SDS-PAGE and immunoblotted with anti-USP7 antibody to detect the level of USP7 protein (shown at the top of graphs in FIG. 5A and FIG. 5B). […] Jurkat cells were exposed to compound 5 for 2 hours and the compounds were washed away followed by incubation for various time points. Cells were harvested, lysed and their USP7 immunoprecipitated and washed with buffer. […] Jurkat cells were incubated with an exemplary compound of the present invention (e.g., compound 5), washed, and incubated for an additional 0-96 h. USP7 was immuno-precipitated from lysates and USP7 activity measured. […] Total cell deubiquitinase activity can be performed to determine selectivity of these compounds (FIG. 5C). These experiments delineate a simple, powerful biomarker for determining the dose-efficacy relationship in the pre-clinical/clinical evaluation of irreversible USP7 inhibitors. Inhibitors were also tested in cells for effects on various PD markers, including three major USP7 substrates, DNMT1, UHRF1 and HDM2 .

DNMT1, UHRF1 and HDM2 = assay: Immunoblot of USP7 substrates DNMT1, UHRF1 and HDM2 in Jurkat cells; assay type: cell-based; settings: 24 h treatment, immunoblot (FIG. 6)
Experimental: FIG. 6 graphically illustrates a decrease in USP7 oncogenic substrates DNMT1, UHRF1 and HDM2 levels in Jurkat cells treated with the USP7i compound 5. 20 μg total cell lysates from each samples were separated on 10% SDS-PAGE and immunoblotted with antibodies against DNMT1, UHRF1, HDM2 and Actin (loading control).
Jurkat cells were incubated with an exemplary compound of the present invention (e.g., compound 5), washed, and incubated for an additional 0-96 h. USP7 was immuno-precipitated from lysates and USP7 activity measured. […] Total cell deubiquitinase activity can be performed to determine selectivity of these compounds (FIG. 5C). These experiments delineate a simple, powerful biomarker for determining the dose-efficacy relationship in the pre-clinical/clinical evaluation of irreversible USP7 inhibitors. Inhibitors were also tested in cells for effects on various PD markers, including three major USP7 substrates, DNMT1, UHRF1 and HDM2 .

USP7core WT = molecular target: T2, USP7core WT (Homo sapiens, UniProt Q93009); assay: Covalent adduct formation with purified USP7core WT by LC-MS; assay type: binding; settings: 5 μM USP7core WT, 100 μM compound, room temperature, 4 h
T2 construct: 5 μM purified USP7core WT or active site cysteine mutant C223A were incubated
T2 sequence (Q93009 214-521 limits assumed): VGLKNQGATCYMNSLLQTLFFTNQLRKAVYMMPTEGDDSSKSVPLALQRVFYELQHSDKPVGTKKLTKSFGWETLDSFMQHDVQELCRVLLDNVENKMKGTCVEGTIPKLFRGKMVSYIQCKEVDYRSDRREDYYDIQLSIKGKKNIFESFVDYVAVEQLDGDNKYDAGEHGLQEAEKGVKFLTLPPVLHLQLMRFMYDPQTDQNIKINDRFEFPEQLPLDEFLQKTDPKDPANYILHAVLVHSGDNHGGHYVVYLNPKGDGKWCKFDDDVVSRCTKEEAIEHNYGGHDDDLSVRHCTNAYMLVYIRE
Experimental: as §1

[1] = pooled analysis of 14 phase I-III studies, various doses; cited from earlier work

Chain of USP7core C223A (Q93009 214-521 C223A limits assumed): as the sequence (Q93009 214-521 limits assumed) above, with C10A counted along it

USP7 catalytic activity returned (USP7; 48 hours after washout)	USP7 catalytic activity returned (USP7; 72 hours after washout) [%]	Molecule	covalent adduct formation with active site mutant USP7 core C223A (USP7core C223A)	inhibition of USP7 activity after pulse treatment (USP7; Jurkat cells, 10 μM for 2 h, up to 72 h (FIG. 5B))	DNMT1 level (DNMT1, UHRF1 and HDM2)	HDM2 level (DNMT1, UHRF1 and HDM2)	UHRF1 level (DNMT1, UHRF1 and HDM2)	covalent adduct formation with wild type USP7 core (USP7core WT)	patients who experienced immune-related adverse effects [1] [%]
about 55%	68	CS(=O)(=O)c1cccc(NC(=O)c2cc([N+](=O)[O-])c(Sc3c(Cl)cncc3Cl)s2)c1 [compound 5, 5-[(3,5-dichloropyridin-4-yl)sulfanyl]-N-[3-(methylsulfonyl)phenyl]-4-nitrothiophene-2-carboxamide]	not in the active site cysteine mutant enzyme; also recorded: failed to form an adduct	prolonged inhibition of USP7 activity, even after 72 h	decrease	decrease	decrease	covalent irreversible adduct formation; also recorded: formed a covalent adduct	–
–	–	ipilimumab	–	–	–	–	–	–	64
